From PubChem BioAssay AID179 (DTP/NCI, 2004)
pEC50, pIC50: −log10 of the molar value. Activity calls are given as the source filed them.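 How the source made its calls: active means compounds giving half or more protection of infected cells from virus-caused growth loss, again on retest; inactive means the rest.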 Where a SMILES comes first, the peptide text is derived from it. The star is where a group is joined. Boc = CC(C)(C)OC(=O)*

Tested on: CEM cells HIV-1 protection, formazan growth assay
Assay: NCI AIDS Antiviral Assay
Conditions: for pIC50: measured here: growth of uninfected CEM cells
Method in brief: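 Category rules: moderately active means at least 50% protection on retest, and confirmed active means 100% protection reproducibly. The underlying data came from a formazan growth assay in HIV-1-infected CEM cells.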

| SMILES | outcome | pEC50 | pIC50 |
| --- | --- | --- | --- |
| CN(C)c1ccc(C=C2C(=O)c3ccccc3C2=O)cc1 | inactive |  |  |
| CC(=O)C1=CN=C2C(=O)N(c3ccccc3)N(C)C12C (configuration not stated) |  | < 3.70 | < 3.70 |
| O=C(O)c1ccccc1CC(Cc1ccccc1)C(=O)O (configuration not stated) |  | < 3.70 | 3.90 |
| CC(C)CC(=O)N1CCN(C(=O)CC(C)C)c2ccccc21 |  | < 3.22 | 3.23 |
| O=C1C[C@@H]2[C@@H](C=CC23CCCC3)N1O | inactive |  |  |
| O=CC(O)C(O)C(O)C1CNC(=S)O1 (configuration not stated) |  | < 3.70 | < 3.70 |
| CC1=NN(c2ccccc2)C(=O)C1N=Nc1ccc(S(=O)(=O)Nc2nccc(C)n2)cc1 (configuration not stated) | inactive |  |  |
| CC(=O)OCCOCn1c2ccccc2c2c3c(c4c5ccccc5n(COCCOC(C)=O)c4c21)C(=O)N(Cc1ccccc1)C3=O | inactive |  |  |
| CC(C)CCn1nc(N)c2nc3ccccc3nc21 |  | < 3.70 | 3.95 |
| Cc1ccccc1-n1c(=O)sc2c(=O)n(-c3ccccc3)c(=S)[nH]c21 |  | < 5.55 | < 5.55 |
| Cc1ccc(-c2cc(=O)c3cc(C)c(C)c(C(=O)O)c3o2)cc1 | inactive |  |  |
| O=C(O)c1cccc(-c2c3ccc(=O)cc-3oc3cc(O)ccc23)c1 |  | < 3.50 | 4.27 |
| N/N=C1/C2CN3CCN(C2)CC1(c1ccc([N+](=O)[O-])cc1)C3 |  | < 3.70 | < 3.70 |
| CC(C)C(O)S(=O)(=O)O (configuration not stated) |  | < 3.70 | < 3.70 |
| O=S(=O)(O)SCNCNCCSCc1ccccc1 |  | < 3.86 | 4.34 |
| Nc1c(N=O)c(=O)n(Cc2ccccc2)c(=O)n1Cc1ccccc1 |  | < 3.70 | 4.93 |
| Cc1ccccc1N=C(N)Nc1ccccc1C |  | < 3.70 | < 3.70 |
| COc1c(C(CC(C)C)OC(C)=O)ccc2c1C(=O)OCc1cc(C)cc(O)c1O2 (configuration not stated) |  | < 3.70 | 4.98 |
| Cn1c(=S)[nH]c2c(Cl)cc(Cl)cc2c1=O |  | < 3.70 | 3.86 |
| C[C@H]1C2=CC(=O)CC[C@@](C)(O2)[C@H]2CC[C@]3(C)C(=O)CC[C@H]3[C@H]12 |  | < 3.08 | 3.38 |
| Cc1cccc2c(N)c3cccc(C(=O)NCC[N+](C)(C)Cc4ccc([N+](=O)[O-])s4)c3nc12 |  | < 5.70 | 6.60 |
| COC(=O)C1CCC(=O)N1C(c1cc(OC)c(OC)c(OC)c1)c1cc(OC)c(OC)c(OC)c1 (configuration not stated) |  | < 3.70 | 4.26 |
| COc1ccc(/C=C2\C(=O)N(C(=O)c3ccc(NC(C)=O)cc3)N=C2C)cc1OC |  | < 5.03 | < 5.03 |

| SMILES | outcome | pEC50 | pIC50 |
| --- | --- | --- | --- |
| COc1ccc(=O)n(C)n1 |  | < 2.75 | 2.84 |
| CC1c2c(cc(=O)n(Cc3ccccc3)c2O)C(=O)N1C (configuration not stated) |  | < 3.90 | 3.95 |
| Nc1c(S)cc(O)c2c1C(=O)c1ccccc1C2=O |  | < 4.00 | < 4.00 |
| CN(C)/N=C1/CCC(C(F)(F)F)(C(F)(F)F)O1 |  | < 3.70 | 5.17 |
| OCCNCN(CNCCO)c1nc(N(CNCCO)CNCCO)nc(N(CNCCO)CNCCO)n1 |  | < 3.70 | 4.95 |
| Cn1c2ccccc2c2oc(-c3nn[nH]n3)cc(=O)c21 |  | < 3.90 | < 3.90 |
| Nc1ncnc2c1ncn2C1C=CC(COS(N)(=O)=O)C1 (configuration not stated) |  | < 4.00 | 4.28 |
| CN(C)CC[PH+](c1ccccc1)c1ccccc1.CN(C)CC[PH+](c1ccccc1)c1ccccc1.[Cl-].[Pd+2] |  | < 3.70 | < 3.70 |
| C[Si](C)(/C=C(\Br)CCOC1CCCCO1)c1ccccc1 (configuration not stated) | inactive |  |  |
| O=c1oc2ccccc2c(-c2ccc(O)cc2)c1Oc1ccc(Cl)cc1 | inactive |  |  |
| COc1ccc(-c2c(N)cnc(C(=O)O)c2C)c(O)c1OC | inactive |  |  |
| O=S1(=O)c2ccccc2N2C(c3ccccc3)=NOC2(c2ccccc2)CC1c1ccc(Br)cc1 (configuration not stated) | inactive |  |  |
| O=C1NC(=O)C(CCC(=O)c2cccc3ccccc23)C(=O)N1 |  | < 4.22 | < 4.22 |
| CC1(C)N=C(N)N=C(N)N1c1ccc(CCCCc2ccc(S(=O)(=O)F)cc2Cl)c(Cl)c1 |  | < 3.97 | 5.85 |
| O=S(=O)(ON=C1C=CC(=NOS(=O)(=O)c2ccccc2)C=C1)c1ccccc1 |  | < 3.70 | 5.99 |
| Nc1ncnc2sc(Nc3ccccc3)nc12 |  | < 4.27 | 4.48 |
| Cc1c2ccc(Cl)cc2nc2ccc(OCCNC(=O)[C@@H](N)CCCN=C(N)N)cc12 |  | < 3.70 | 4.51 |
| N#C/C(=C\c1cc(Br)cc(Br)c1O)c1ccc([N+](=O)[O-])cc1 |  | < 4.00 | 4.87 |
| COc1ccc2cc1Oc1ccc(cc1)C[C@@H]1c3cc(c(OC)cc3CCN1C)Oc1c(OC)c(OC)cc3c1[C@H](C2)N(C)CC3 | inactive |  |  |
| CN1CCC2(CC1)C(=O)N(N1CCCCCC1)C(=O)N2c1ccccc1 |  | < 3.70 | < 3.70 |
| CC(C)=CCC/C(C)=C/CC12OC(C)(C)C(Cl)CC1(Cl)C(=O)c1c(O)cc(O)cc1C2=O (configuration not stated) |  | < 4.43 | 4.96 |
| CC1(c2cc(Cl)c(Cl)cc2Cl)NC(=O)NC1=O (configuration not stated) | inactive |  |  |
| Cc1cc(NCCCCCCCNc2cc(C)nc3cc([N+](=O)[O-])ccc23)c2ccc([N+](=O)[O-])cc2n1 | inactive |  |  |

| SMILES | outcome | pEC50 | pIC50 |
| --- | --- | --- | --- |
| O=C(NCCCl)N(O)C(=O)Nc1ccccc1 |  | < 3.70 | 3.90 |
| N#CC(C#N)=Cc1ccccc1Br |  | < 3.72 | 5.48 |
| Cc1ccc(S(=O)(=O)NC2C(=O)c3ccccc3C(=O)C2n2cnc3ccccc32)cc1 (configuration not stated) |  | < 3.70 | 4.37 |
| CCOC(=O)C(=O)Cc1cnc2ccccc2n1 |  | < 4.27 | < 4.27 |
| Nc1ccc(S(=O)(=O)Cc2ccc(C(=O)O)cc2[N+](=O)[O-])cc1 |  | < 3.97 | < 3.97 |
| COC(=O)[C@@]12CN(C)[C@@H](C(C)(C)C)N1C(=O)OC2c1ccccc1 (some centres not stated) |  | < 3.70 | < 3.70 |
| O=C(NC(=O)c1c(Cl)nc2sccn12)Nc1ccc(Cl)cc1 |  | < 5.00 | < 5.00 |
| Cc1cccc(C)c1NC(=O)CCC(=O)NNC(=O)c1cc(O)c2ccccc2c1 |  | < 3.63 | 4.47 |
| CC(=O)N(O)C(C)=O |  | < 2.67 | 2.75 |
| O=[N+]([O-])c1ccc(-c2ccc(C3=Nn4c(CNc5ccccc5Cl)nnc4SC3)o2)cc1 |  | < 4.95 | < 4.95 |
| CC1=C(C#N)C2(C(=O)N(C)c3ccccc32)C(C#N)=C(C)N1 |  | < 3.49 | 4.56 |
| CCOC(=O)c1sc(Nc2cc(Cl)ccc2Cl)nc1C | inactive |  |  |
| COc1ccc(C2CCC(Cl)(OC)CC2C=O)cc1 (configuration not stated) |  | < 3.61 | 3.81 |
| CC(=O)N[C@@H]1C(O)CN2C(=O)C(=O)O[C@H](C(O)CO)[C@@H]12 (some centres not stated) | inactive |  |  |
| COc1ccc2oc(=N)c(C(N)=S)cc2c1 |  | < 3.70 | 4.57 |
| O=C1C(Cl)=C(Cl)C(=O)N1C1C2CC3CC(C2)CC1C3 (configuration not stated) | inactive |  |  |
| O=C(O)C1CC2(CCC1c1ccccc1)SCCS2 (configuration not stated) |  | < 3.35 | < 3.35 |
| CSc1nc(C)c(CCCl)c(Cl)n1 | inactive |  |  |
| NCCNc1ccc([N+](=O)[O-])c2c(=O)c3ccccc3[nH]c12 | inactive |  |  |
| COc1cc(/C=C/C(=O)c2c(=O)o[nH][n+]2-c2ccccc2)ccc1[O-] | inactive |  |  |
| CC(=O)SCC1CC[C@]2(C)C3CC[C@]4(C)C(C(C)CCC(=O)O)CCC4[C@@H]3CC[C@@H]2C1 (some centres not stated) |  | < 5.23 | < 5.23 |
| Cn1cc(N)cc1C(=O)Nc1cc(C(=O)Nc2ccc3cc(S(=O)(=O)O)cc(S(=O)(=O)O)c3c2)n(C)n1 |  | 4.74 | < 4.00 |
| Nc1ccc(C(=O)N/C(=C\c2ccc3c(c2)OCO3)c2nc3ccc4c(c3[nH]2)C(=O)c2ccccc2C4=O)cc1 | inactive |  |  |

| SMILES | outcome | pEC50 | pIC50 |
| --- | --- | --- | --- |
| N#Cc1sc2c(c1OC(=O)c1ccccc1)c(=O)n(-c1ccccc1)c(=S)n2-c1ccccc1 |  | < 3.70 | 5.63 |
| O=P1(OCC(F)(F)C(F)F)Oc2ccccc2O1 |  | < 4.38 | 5.49 |
| c1ccc2cc(C3NCCc4[nH]cnc43)ccc2c1 (configuration not stated) |  | < 4.54 | < 4.54 |
| CC1=NN2C(=N)/C(=C/c3ccc(F)cc3)C(=O)N=C2S1 |  | < 3.70 | < 3.70 |
| Fc1cccc(C2SCc3nc4ccccc4n32)c1 (configuration not stated) |  | < 3.68 | 4.68 |
| O=C(O)/C=C/C(=O)NCCCCCCNC(=O)/C=C/C(=O)O | inactive |  |  |
| Cc1ccc2c(c1)C1(SC(C)C(=O)N1c1ccc(I)cc1)C(=O)N2 (configuration not stated) |  | < 3.70 | 4.70 |
| CC(=O)N=C1N(/C=C2\C(=O)Oc3ccccc3C2=O)C(=O)/C(=C/c2ccc(Cl)cc2Cl)N1C |  | < 3.70 | 4.46 |
| CC(C)C(NC(=O)OC(C)(C)C)C(=O)N1CCCC1C(=O)O (stereo not drawn) (Boc-Val-Pro-OH; configuration not given here) |  | < 3.70 | < 3.70 |
| Cn1cc(NC(=O)[C@@H]2CCC(N)=N2)cc1C(=O)NCCC(=N)N | inactive |  |  |
| O=C1OCCOCCOCCOCCOC(=O)c2cccc1c2 |  | < 3.81 | < 3.81 |
| Cc1nc2ccc(S(=O)(=O)Nc3ccc(Cl)cc3)cc2c(=O)n1NC(=O)CNc1ccc(Cl)cc1 |  | < 3.70 | < 3.70 |
| COc1ccc2[nH]c3c(c2c1)CCc1ccccc1-3 | inactive |  |  |
| O=C(Nc1ccc([N+](=O)[O-])cc1)N(c1ccccn1)c1ccccn1 |  | < 3.70 | 3.82 |
| CC(=O)Oc1c(N2CCCCC2)c(C(=O)c2ccccc2)c(O)c2ccn(N(C)C)c12 |  | < 3.70 | 5.08 |
| Cc1cn(C2CC(O[Si](C)(C)C(C)(C)C)C(CN(OC(=O)Oc3ccccc3)C(=O)Oc3ccccc3)O2)c(=O)[nH]c1=O (configuration not stated) |  | < 3.70 | 4.99 |
| Cc1cccnc1NC(=O)NCCCl |  | < 3.70 | < 3.70 |
| CC1CC(c2ccc([N+](=O)[O-])cc2)=Nc2ccccc2S1=O (configuration not stated) |  | < 4.92 | < 4.92 |
| COc1ccc(-c2cc(-c3ccccc3)nc(N)c2-c2ccc3ccccc3c2)cc1 |  | < 3.70 | 5.61 |
| COC(=O)C1=C(C(=O)OC)C23C=CC=CC24C(C(=O)OC)=C(C(=O)OC)C4C1C3 (configuration not stated) |  | < 3.35 | 3.81 |
| CC1OC(=O)N2CCC=CC12 (configuration not stated) | inactive |  |  |
